Read-outs that look alike come from different tables or passages of the source.

The series in a line: Skin-Pampa assay. It counts as in vitro ADME. As to conditions: for Multiplicity (relative to the prototype drug): Skin-Pampa Pe of prodrug relative to its prototype drug. The method, then: • 1. Hydrate the Skin-Pampa membrane with hydration solution overnight. • 2. Dissolve each compound to be tested in DMSO and prepare 0.5 mL 20 mM solutions of the test compounds. Take 50 uL of solutions of the test compounds to the corresponding 5 mL of donor solution and mix well. • 3. Add 200 μL of the sample solution to the donor (bottom) plate and add 200 μL of acceptor solution into the wells of the acceptor (TOP) plate, and 12 wells are incubated in parallel for each sample. • 4. After 7 hours of incubation, 100 μL of the sample in each of the donor plate and 100 μL of the sample in each of the acceptor plate were sampled and then added with 200 μL of dilution (50% acetonitrile aqueous solution), mixed by vortexing and centrifuged, 200 μL of the supernatant was used for HPLC content detection. • 5. The Skin-Pampa parameters are calculated according to the following equation
[formula] [formula] • Pe—effective permeability coefficient; • VA— the volume of acceptor well (ml); • VD— the volume of donorwell (ml); • A—the filtration area (cm^2); • t—the incubation time (s); • tLAG—the steady-state time (s); • CD(t)—the concentration of the compound in donorwell at t; • CA(t)—the concentration of the compound in acceptor well at t; • CD(0)—the concentration at the compound in donorwell at 0.

Setting [1] is: Skin-Pampa, 7 hours of incubation, 12 wells in parallel, HPLC detection.
Setting [2] is: Skin-Pampa, 7 hours of incubation, 12 wells in parallel, HPLC detection, read-out: Pe (effective permeability coefficient).

Compound `C[C@@H]1CCN(C(=O)CC#N)C[C@@H]1N(C)c1ncnc2[nH]ccc12` [Tofacitinib, reference compound] had a LogPe under setting [1] of −6.45 ± 0.14. Also, under setting [2], the Papp at 7 h, 200 µM was 0.36 ± 0.12 ×10⁻⁶ cm/s.
For the compound `N#CCC1(n2cc(-c3ncnc4[nH]ccc34)cn2)CN(C2CCN(C(=O)c3ccnc(C(F)(F)F)c3F)CC2)C1` [Itacitinib, reference compound], the LogPe under setting [1] is −6.88 ± 0.34. Besides, under setting [2], the Papp at 7 h, 200 µM was found to be 0.13 ± 0.17 ×10⁻⁶ cm/s.
With `CCCCC(CC)CCC(=O)OCn1ccc2c(N(C)[C@H]3CN(C(=O)CC#N)CC[C@H]3C)ncnc21` (stereo partly shown) [Example 4], the “Multiplicity (relative to the prototype drug)” value is given as 8.25-8.92. The same compound displayed a LogPe under setting [1] of −5.50 ± 0.17. In addition, under setting [2], the Papp at 7 h, 200 µM was found to be 3.13 ± 1.15 ×10⁻⁶ cm/s.
For `CCCCCCCCC(=O)OCn1ccc2c(N(C)[C@H]3CN(C(=O)CC#N)CC[C@H]3C)ncnc21` [Example 7], in that order: 7.38-10.08, −5.53 ± 0.08 and 2.98 ± 0.56 ×10⁻⁶ cm/s.
With `CCCCCCCC(=O)OCn1ccc2c(N(C)[C@H]3CN(C(=O)CC#N)CC[C@H]3C)ncnc21` [Example 1], the “Multiplicity (relative to the prototype drug)” value is on record as 4.31-4.46. Moreover, the Papp at 7 h, 200 µM (PAMPA) is 1.57 ± 0.5 ×10⁻⁶ cm/s. Under “PAMPA, 7 h, 200 µM”, this compound registered a LogPe of −5.80 ± 0.11.
For the compound `CCCCCCCCCCCC(=O)OCn1ccc2c(N(C)[C@H]3CN(C(=O)CC#N)CC[C@H]3C)ncnc21` [Example 5], the “Multiplicity (relative to the prototype drug)” value is recorded as 6.88-8.15. Further, the LogPe under setting [1] is recorded as −5.56 ± 0.16. In addition, under setting [2], the Papp at 7 h, 200 µM was found to be 2.78 ± 1.13 ×10⁻⁶ cm/s.
For `CCCCC(CC)CCC(=O)OCn1ccc2c(NC3C4CC5CC3CC(O)(C5)C4)c(C(N)=O)cnc21` (stereo not shown) [Example 13], in that order: 8.59-15.6, −6.01 ± 0.19 and 1.07 ± 0.39 ×10⁻⁶ cm/s.
For `CCCCCCCCCC(=O)OCn1ccc2c(N(C)[C@H]3CN(C(=O)CC#N)CC[C@H]3C)ncnc21` [Example 8], in that order: 5.29-7.67, −5.66 ± 0.08 and 2.19 ± 0.35 ×10⁻⁶ cm/s.
With `CCCCC(CC)CCC(=O)OCn1ccc2c1ncc1ncc([C@H]3CN(C(=O)NCC(F)(F)F)C[C@H]3CC)n12` (stereo partly shown) [Example 14], the “Multiplicity (relative to the prototype drug)” value is on record as 6.81-8.83. The LogPe under setting [1] is recorded as −6.09 ± 0.19. Moreover, under setting [2], the Papp at 7 h, 200 µM worked out at 0.81 ± 0.28 ×10⁻⁶ cm/s.
`CCCCC(CC)CCC(=O)OCn1ccc2c(-c3cnn(C4(CC#N)CN(C5CCN(C(=O)c6ccnc(C(F)(F)F)c6F)CC5)C4)c3)ncnc21` (stereo not shown) [Example 15]: the “Multiplicity (relative to the prototype drug)” value is 5.8-19.5. This compound showed a LogPe under setting [1] of −5.90 ± 0.20. For the same compound, the Papp at 7 h, 200 µM under setting [2] was determined as 1.26 ± 0.48 ×10⁻⁶ cm/s.
On to `CN1C(C(=O)Nc2ccccn2)=C(O)c2ccccc2S1(=O)=O` [Piroxicam, reference compound], for which the LogPe under setting [1] was −5.73 ± 0.06. For the same compound, the Papp at 7 h, 200 µM under setting [2] came out at 1.84 ± 0.24 ×10⁻⁶ cm/s.
Turning to `CC[C@@H]1CN(C(=O)NCC(F)(F)F)C[C@@H]1c1cnc2cnc3[nH]ccc3n12` [Upadacitinib, reference compound], under setting [1], the LogPe was −6.96 ± 0.20. In addition, the Papp at 7 h, 200 µM under setting [2] is 0.11 ± 0.05 ×10⁻⁶ cm/s.
Under setting [1], `NC(=O)c1cnc2[nH]ccc2c1N[C@@H]1[C@@H]2CC3C[C@H]1C[C@@](O)(C3)C2` [Peficitinib, reference compound] showed a LogPe of −7.06 ± 0.33. Further, the Papp at 7 h, 200 µM under setting [2] stood at 0.11 ± 0.06 ×10⁻⁶ cm/s.

The values are drawn from patent US20240139327A1, “PRODRUG COMPOUND, PREPARATION METHOD THEREFOR AND USE THEREOF” (MINGHUI PHARMACEUTICAL (HANGZHOU) LIMITED, priority 2021, published 2024).
